Laboratory results: ChEMBL document CHEMBL1151609, “The discovery of novel openers of Ca2+-dependent large-conductance potassium channels: Pharmacophore search and physiological evaluation of flavonoids” (Bioorg Med Chem Lett, 1997)

These molecules were tested against Calcium-activated potassium channel subunit alpha-1 (Homo sapiens) (UniProt Q12791) (assay: The compound was tested for maxi-K channel opening property at concentration of 20 uM, activity expressed as percentage of current).
Chain of Calcium-activated potassium channel subunit alpha-1 (Homo sapiens) (Q12791 whole entry): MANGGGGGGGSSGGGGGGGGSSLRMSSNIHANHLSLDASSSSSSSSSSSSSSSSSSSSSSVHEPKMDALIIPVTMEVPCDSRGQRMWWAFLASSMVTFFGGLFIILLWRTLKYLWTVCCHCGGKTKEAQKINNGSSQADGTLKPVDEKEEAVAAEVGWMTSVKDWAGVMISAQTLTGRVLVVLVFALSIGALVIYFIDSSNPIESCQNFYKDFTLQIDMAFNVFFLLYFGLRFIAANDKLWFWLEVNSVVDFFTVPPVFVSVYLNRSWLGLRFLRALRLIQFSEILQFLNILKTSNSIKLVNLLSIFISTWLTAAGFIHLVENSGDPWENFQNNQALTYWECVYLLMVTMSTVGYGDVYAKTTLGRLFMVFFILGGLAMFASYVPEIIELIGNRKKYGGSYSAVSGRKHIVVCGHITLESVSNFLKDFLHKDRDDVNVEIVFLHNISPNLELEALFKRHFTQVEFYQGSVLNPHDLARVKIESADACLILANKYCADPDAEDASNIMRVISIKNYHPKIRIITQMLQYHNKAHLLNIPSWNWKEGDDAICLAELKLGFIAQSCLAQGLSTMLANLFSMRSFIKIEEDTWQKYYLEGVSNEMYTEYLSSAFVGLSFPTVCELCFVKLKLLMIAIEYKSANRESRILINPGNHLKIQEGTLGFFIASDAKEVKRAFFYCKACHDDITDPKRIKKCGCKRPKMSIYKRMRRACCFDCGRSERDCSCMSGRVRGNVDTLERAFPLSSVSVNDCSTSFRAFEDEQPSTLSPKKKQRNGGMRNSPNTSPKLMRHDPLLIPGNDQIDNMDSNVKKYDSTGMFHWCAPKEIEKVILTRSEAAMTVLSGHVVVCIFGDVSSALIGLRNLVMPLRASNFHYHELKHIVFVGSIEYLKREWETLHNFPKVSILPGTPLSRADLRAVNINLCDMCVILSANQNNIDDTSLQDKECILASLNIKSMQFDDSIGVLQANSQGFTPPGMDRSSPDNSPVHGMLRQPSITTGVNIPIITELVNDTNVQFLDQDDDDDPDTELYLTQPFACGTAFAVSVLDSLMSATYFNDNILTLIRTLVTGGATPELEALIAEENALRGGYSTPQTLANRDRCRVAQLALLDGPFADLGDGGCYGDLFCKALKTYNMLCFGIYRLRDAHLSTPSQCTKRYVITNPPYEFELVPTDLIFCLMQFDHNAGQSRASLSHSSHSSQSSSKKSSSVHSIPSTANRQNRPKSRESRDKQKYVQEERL

Question: With `CC(=O)Nc1ccc(O)c(C(=O)/C=C/c2ccccc2)c1` as the molecule, how does the Maxi-K current, % of control read?
Answer: 81.5%

Question: Which Maxi-K current, % of control does the source give for `O=C(/C=C/c1cccc([N+](=O)[O-])c1)c1ccccc1O` here?
Answer: 74.4%

Question: With `COc1cc(OC)c2c(=O)c(OC)c(-c3ccc(OC)c(OC)c3)oc2c1` as the molecule, how does the Maxi-K current, % of control read?
Answer: 94.6%

Question: For `O=C(CCc1ccc(O)cc1)c1c(O)cc(O)cc1O`, which Maxi-K current, % of control is on record?
Answer: 120%

Question: For `O=c1c(O)c(-c2ccc(O)cc2)oc2cc(O)cc(O)c12`, which Maxi-K current, % of control is on record?
Answer: 167%

Question: How did the Maxi-K current, % of control turn out when `O=c1cc(-c2ccccc2)oc2ccccc12` was run?
Answer: 103%

Question: With `O=C(/C=C/c1ccccc1)c1ccccc1` as the molecule, how does the Maxi-K current, % of control read?
Answer: 82.4%

Question: For `O=c1[nH]c2cc(C(F)(F)F)ccc2n1-c1cc(Cl)ccc1O`, which Maxi-K current, % of control is on record?
Answer: 132%

Question: `O=c1cc(-c2ccc(O)cc2)oc2cc(O)cc(O)c12` was tested. Which Maxi-K current, % of control did it give?
Answer: 159%
